One data set has as its target T1, CDK2/cyclin E (Homo sapiens, UniProt P24941).
T1 construct: made in house; host or cells: Sf9 insect cells (baculovirus co-infection)
The data set is described as follows: CDK2/cyclin E kinase inhibition assay (histone H1, [γ-33P]ATP). The conditions noted are these: averaged from triplicates; 15 μM ATP. The data set is classed as biochemical. The method, then: (§1) CDK1/cyclin B and CDK2/cyclin E kinases were produced in Sf9 insect cells coinfected with appropriate baculoviral constructs. The cells were harvested 70 h post infection, incubated in lysis buffer (50 mM Tris pH 7.4, 150 mM NaCl, 5 mM EDTA, 20 mM NaF, 1% Tween 20, 1 mM DTT, 0.1 mM PMSF, 0.5 μg/ml leupeptine, 1 μg/ml aprotonine) for 30 min on ice and the soluble fraction was recovered by centrifugation at 20.000 g for 10 min. The enzymes were purified on NiNTA column (Qiagen), stored at 4° C. and used within a week. To carry out the enzyme inhibition assays under linear conditions, the final point test system for kinase activity measurement was used. Kinase was added to reaction mixture in such a way as to obtain linear activity with respect to the concentration of enzyme and with respect to time. For determination of kinase inhibition the reaction mixture contained 1 mg/ml histone H1 (type III-S, Sigma) in the presence of 15 μM ATP, 0.05 μCi [γ-^33P]ATP and the tested compound in a final volume of 10 μl; all in reaction buffer (50 mM HEPES, 10 mM MgCl2, 5 mM EGTA, 10 mM 2-glycerolphosphate, 1 mM NaF, 1 mM DTT, pH 7.4). After 20 min incubation, the reactions were stopped by the addition of 5 μl of a 3% H3PO4, aliquots were spotted on P-81 phosphocellulose (Whatman, USA) that was subsequently washed 3× with 5% H3PO4 and finally air dried. The measurements of kinase inhibition employed digital image analyzer BAS-1800 (Fujifilm, Japan). Kinase activity was usually expressed as a percentage of maximum activity. […] For the purpose of kinetic analysis, the activity was expressed as arbitrary units (AU) of digital image analyzer signal.

The subject of data set [1] is G 361 (human malignant melanoma). The data set is described as follows: In vitro cytotoxicity, Calcein AM, 72 h. Particulars: for IC50: read-out: IC50 (μM) G361. The format is cell-based. Here is the method: (§2) Tested drugs were added to the cell cultures in six different concentration and kept at 37° C. and 5% CO2 for three days.
(§3) The cells, cultured in DMEM (supplemented with 10% fetal calf serum, 4 mM glutamine, 100 IU/ml penicillin, 100 μg/ml streptomycin) in a humidified CO2 incubator at 37° C., were redistributed into 96-well microtitre plates (10.000 cells per well). After 12 h preincubation, tested compounds in six-fold dilutions were added. Treatment of cells with the tested compounds (in the 1-100 μM range) lasted for 72 h.

A short description of data set [2]: In vitro cytotoxicity, Calcein AM, 72 h. The data set is classed as cell-based, human. Particulars: human, at 100 μM. The method, then:
as §2, §3

In data set [3] the test system is HOS (human osteogenic sarcoma). Nature of the data set: In vitro cytotoxicity, Calcein AM, 72 h. The data set is classed as cell-based. The conditions noted are these: for IC50: read-out: IC50 (μM) HOS. The method, then: as §2, §3
Data set [4] concerns MCF7 (human breast adenocarcinoma). The data set is described as follows: In vitro cytotoxicity, Calcein AM, 72 h. The format is cell-based. The conditions noted are these: for IC50: read-out: IC50 (μM) MCF7. The method, then: as §2, §3
Data set [5] has as its system K562 (human chronic myeloblastic leukemia). The data set is described as follows: In vitro cytotoxicity, Calcein AM, 72 h. The data set is classed as cell-based. Particulars: for IC50: read-out: IC50 (μM) K562. The method, then:
as §2, §3

The next data set addresses T2, CDK1/cyclin B (Homo sapiens, UniProt P06493).
T2 construct: made in house; host or cells: Sf9 insect cells (baculovirus co-infection)
The data set is described as follows: CDK1/cyclin B kinase inhibition assay (histone H1, [γ-33P]ATP). The data set is classed as biochemical. Particulars: averaged from triplicates; 15 μM ATP. Here is the method:
as §1

In the next data set the test system is CDK1 and CDK2. The data set is described as follows: CDK inhibition, for CDK1 and CDK2 together. The format is biochemical. Here is the method: as §1, with “After 20 min incubation, the reactions were stopped by the addition of 5 μl of a 3% H3PO4, aliquots were spotted on P-81 phosphocellulose (Whatman, USA) that was subsequently washed 3× with 5% H3PO4 and finally air dried. The measurements of kinase inhibition employed digital image analyzer BAS-1800 (Fujifilm, Japan).” left out

In a further data set the test system is MAPK1. Particulars: Knockaert et al 2000, Cohen 2003; cited from earlier work.
The target in a further data set is CDK7 (Homo sapiens, UniProt P50613). The conditions noted are these: Knockaert et al 2000, Cohen 2003; cited from earlier work.
CDK7, sequence (P50613 whole entry, species assumed): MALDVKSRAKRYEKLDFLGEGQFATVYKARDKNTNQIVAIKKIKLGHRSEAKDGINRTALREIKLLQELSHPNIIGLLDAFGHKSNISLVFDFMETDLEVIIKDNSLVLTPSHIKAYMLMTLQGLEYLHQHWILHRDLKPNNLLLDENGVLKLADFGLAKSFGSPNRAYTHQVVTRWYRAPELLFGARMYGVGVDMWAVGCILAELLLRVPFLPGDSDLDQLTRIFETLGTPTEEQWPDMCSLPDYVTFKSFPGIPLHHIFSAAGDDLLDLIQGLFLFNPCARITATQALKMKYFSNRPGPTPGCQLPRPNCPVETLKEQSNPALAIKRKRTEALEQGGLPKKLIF
CDK7, sequence (P51946 whole entry partner, species assumed): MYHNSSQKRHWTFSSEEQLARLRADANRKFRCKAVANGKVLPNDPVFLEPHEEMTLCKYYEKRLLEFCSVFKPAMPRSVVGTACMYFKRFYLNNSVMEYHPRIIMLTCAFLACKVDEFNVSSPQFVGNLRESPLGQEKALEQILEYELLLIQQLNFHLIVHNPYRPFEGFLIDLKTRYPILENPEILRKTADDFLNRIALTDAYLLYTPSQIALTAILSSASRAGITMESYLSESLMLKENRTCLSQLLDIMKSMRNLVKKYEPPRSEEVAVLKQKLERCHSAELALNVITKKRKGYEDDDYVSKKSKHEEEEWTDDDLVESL
A further data set can be described thus: in vitro. The format is cell-based. The conditions noted are these: human. The method, then:
The following cell lines were used: HELA (human cervical carcinoma), MCF7 (human breast adenocarcinoma), NIH 3T3 (mouse fibroblasts), HOS (human osteogenic sarcoma), HL 60 (human promyelocytic leukemia), G 361 (human malignant melanoma), K562 (human chronic myeloblastic leukemia), CEM (human lymphoblastoid leukaemia). Tested drugs were added to the cell cultures in six different concentration and kept at 37° C. and 5% CO2 for three days.
as §3, with “h. At the end of this period, the cells were fed for 1 h with Calcein AM and the fluorescence of the live cells was measured at 485 nm/538 nm (ex/em) with a Fluoroskan Ascent (Labsystems, Finland).” for “h.”

The mark [6] stands for this setting: Homo sapiens, G-361, 72 h, Calcein AM, triplicates.
[7] abbreviates: G 361 cells (human malignant melanoma), 72 h, read-out: % of viable cells G361.
Where [8] appears, read: HOS cells (human osteogenic sarcoma), read-out: % of viable cells HOS.
Where [9] appears, read: K562 cells (human chronic myeloblastic leukemia), 72 h, read-out: % of viable cells K562.
Where [10] appears, read: MCF7 cells (human breast adenocarcinoma), 72 h, read-out: % of viable cells MCF7.
Setting [11] is: Homo sapiens, Calcein AM, triplicates.
Setting [12] is: Homo sapiens, MCF7, 72 h, Calcein AM, triplicates.
The mark [13] stands for this setting: Homo sapiens, K562, 72 h, Calcein AM, triplicates.

SMILES strings stand for the structures. Read-outs that look alike come from different tables or passages of the source.

T2 sequence (P06493 whole entry): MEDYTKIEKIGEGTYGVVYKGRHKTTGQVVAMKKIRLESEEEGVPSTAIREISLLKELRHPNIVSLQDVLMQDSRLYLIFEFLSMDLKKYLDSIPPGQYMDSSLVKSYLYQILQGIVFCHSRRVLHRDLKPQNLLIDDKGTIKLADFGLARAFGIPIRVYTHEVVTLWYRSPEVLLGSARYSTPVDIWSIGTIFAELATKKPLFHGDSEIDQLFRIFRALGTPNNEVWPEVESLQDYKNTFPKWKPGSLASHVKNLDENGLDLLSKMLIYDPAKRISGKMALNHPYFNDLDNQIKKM
T2 sequence (P14635 whole entry partner): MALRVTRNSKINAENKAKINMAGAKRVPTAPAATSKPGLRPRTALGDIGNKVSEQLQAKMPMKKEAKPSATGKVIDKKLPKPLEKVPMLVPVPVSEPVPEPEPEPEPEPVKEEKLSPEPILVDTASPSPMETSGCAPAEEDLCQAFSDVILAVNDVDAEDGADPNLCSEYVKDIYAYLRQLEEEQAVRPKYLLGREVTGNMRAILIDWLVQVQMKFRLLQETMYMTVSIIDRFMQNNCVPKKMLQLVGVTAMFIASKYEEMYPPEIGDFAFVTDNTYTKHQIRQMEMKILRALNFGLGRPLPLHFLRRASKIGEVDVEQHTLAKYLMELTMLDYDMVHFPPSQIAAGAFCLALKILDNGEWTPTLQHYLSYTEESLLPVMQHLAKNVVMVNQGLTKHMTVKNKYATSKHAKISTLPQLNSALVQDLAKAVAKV

One may read the IC50 as the concentration that inhibits the measured activity by half. Take `Nc1n[nH]c(N)c1N=Nc1ccccc1CO` [Compound 16b, 3,5-diamino-4-(2-hydroxymethyl)phenylazo-pyrazole]: the IC50 against CDK2/cyclin E was 17 µM; in [1] (setting [6]), greater than 100 µM; in data set [3] (setting [11]), greater than 100 µM; in data set [4] (setting [12]), greater than 100 µM; in [5] (setting [13]), greater than 100 µM; at CDK1/cyclin B it was 21 µM. In addition, the viability at 72 h, 100 µM was 84% in [2] (setting [7]), 87% in [2] (setting [8]), 86% in data set [2] (setting [9]) and 51% in data set [2] (setting [10]).
With `NCc1ccc(/N=N/c2c(N)n[nH]c2N)cc1` [Compound 17b, 3,5-diamino-4-(4-aminomethyl)phenylazo-pyrazole], the IC50 at CDK2/cyclin E and against CDK1/cyclin B was greater than 100 µM in each case. Also, the “CDK inhibitory activity (in words)” value with CDK1 and CDK2 was “low activity (almost zero)”.
As for `Nc1n[nH]c(N)c1/N=N/c1ccc([N+](=O)[O-])cc1` [Compound 9b, 3,5-diamino-4-(4-nitro)phenylazo-pyrazole], the IC50 in data set [1] (Homo sapiens, G-361, 72 h) was greater than 100 µM; in data set [3] (Homo sapiens), greater than 100 µM; in data set [4] (Homo sapiens, MCF7, 72 h), greater than 100 µM; in data set [5] (Homo sapiens, K562, 72 h) it was 71 ± 6 µM; on CDK1/cyclin B, 16 µM. Besides, the viability at 72 h, 100 µM in data set [2] (setting [7]) is 61%; in data set [2] (setting [8]), 80%; in data set [2] (setting [9]), 25%; in [2] (setting [10]), 60%.
Turning to `Nc1n[nH]c(N)c1N=Nc1cccc2c1CCCC2` [Compound 30b], the IC50 against CDK2/cyclin E is greater than 100 µM; in data set [1] (72 h, Calcein AM, triplicates), 77 ± 4 µM; in data set [3] (Calcein AM, triplicates), 92 ± 5 µM; in data set [4] (72 h, Calcein AM, triplicates) it was 81 ± 9 µM; in data set [5] (72 h, Calcein AM, triplicates), 55 ± 1 µM; at CDK1/cyclin B, greater than 100 µM. Also, the “% of viable cells G361” value in data set [1] (at 100 μM, 72 h) was “(27 ± 5) %”. In data set [3] (at 100 μM), the “% of viable cells HOS” value is “(32 ± 6%)”. In data set [4] (at 100 μM, 72 h), the “% of viable cells MCF7” value is “(39 ± 10%)”. For the same molecule, the “% of viable cells K562” value in data set [5] (at 100 μM, 72 h) was “(26 ± 7) %”. Further, the “CDK inhibitory activity (in words)” value in the data set with CDK1 and CDK2 is reported as “only a weak impact on CDK activity”.
With `CC[C@H](CO)Nc1nc(NCc2ccccc2)c2ncn(C(C)C)c2n1` [roscovitine], the “effect on MAPK1 (in words)” value in the data set on MAPK1 is “strong effect”. At CDK7, the “effect on CDK7 (in words)” value is “strong effect”.
For the molecule `Nc1n[nH]c(N)c1N=Nc1ccccc1[N+](=O)[O-]` [Compound 7b, 3,5-diamino-4-(2-nitro)phenylazo-pyrazole], the IC50 was 6.1 µM against CDK2/cyclin E; greater than 100 µM in data set [1] (setting [6]); greater than 100 µM in [3] (setting [11]); greater than 100 µM in [4] (setting [12]); 100 ± 10 µM in data set [5] (setting [13]); 2.6 µM on CDK1/cyclin B. The viability at 72 h, 100 µM in data set [2] (setting [7]) was 58%; in data set [2] (setting [8]) it was 57%; in [2] (setting [9]), 48%; in data set [2] (setting [10]), 62%.
On to `Nc1n[nH]c(N)c1/N=N/c1cccc(O)c1` [Compound 11b, 3,5-diamino-4-(3-hydroxy)phenylazo-pyrazole], for which the IC50 is greater than 100 µM in [1] (setting [6]); greater than 100 µM in [3] (setting [11]); greater than 100 µM in data set [4] (setting [12]); greater than 100 µM in data set [5] (setting [13]); 6 µM against CDK1/cyclin B. In addition, the viability at 72 h, 100 µM in [2] (setting [7]) is 70%; in data set [2] (setting [8]), 83%; in data set [2] (setting [9]) it was 53%; in data set [2] (setting [10]), 71%.
For the molecule `Cn1cnc2c(NCc3ccccc3)nc(NCCO)nc21` [olomoucine, reference compound], in the data set “in vitro”, the IC50 at 72 h was greater than 100 µM.

The values above are taken from patent publication US8357673B2, “4-arylazo-3,5-diamino-pyrazole compounds and use thereof” (Univerzita Palackeho V Olomouci, priority 2004, dated 2013).
